Source: PMC3224021 (ACS medicinal chemistry letters, 2011)

Key:
[1] = biological target: human GALK (Homo sapiens, UniProt P51570); experiment: in vitro GALK; format: biochemical; details: for inhibitory activity against GALK (in words): in vitro GALK inhibitory assays, tested up to 50μM
[2] = test system: GALK in patient fibroblast cells; experiment: intracellular inhibition of GALK measured by reduction of gal-1P accumulation; format: cell-based, human; details: 50μM
[3] = test system: human fibroblast cells; experiment: cell tolerance / lethality in fibroblast cells; format: cell-based

human GALK, sequence (P51570 whole entry): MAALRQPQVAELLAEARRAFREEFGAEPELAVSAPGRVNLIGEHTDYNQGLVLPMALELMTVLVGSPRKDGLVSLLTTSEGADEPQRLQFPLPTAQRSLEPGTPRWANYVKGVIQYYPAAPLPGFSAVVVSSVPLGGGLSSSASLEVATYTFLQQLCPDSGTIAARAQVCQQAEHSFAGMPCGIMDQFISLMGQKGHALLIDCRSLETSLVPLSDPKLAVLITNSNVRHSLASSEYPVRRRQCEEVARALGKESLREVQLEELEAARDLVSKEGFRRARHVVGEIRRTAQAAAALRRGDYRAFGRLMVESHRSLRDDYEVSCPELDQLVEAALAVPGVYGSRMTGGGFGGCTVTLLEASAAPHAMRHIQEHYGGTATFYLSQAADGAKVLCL

| Compound | inhibitory activity against GALK (in words) [1] | also measured |
| --- | --- | --- |
| N#CC1=C(SCc2cccc(N3CCOCC3)c2)SC(c2ccc(O)cc2)NC1=O (stereo not shown) [compound 29] | – | inhibition of GALK / lowering of gal-1P in cells (in words) [2]: neither 27 nor 29 was able to inhibit GALK or lowered gal-1P; cell tolerance / lethality ([3]; 50μM): well-tolerated; cell lethality ([3]; 100μM or higher): lethal to cells |
| CC(=O)Oc1ccc(C2NC(=O)C(C#N)=C(SCc3ccccc3)S2)cc1OC(C)=O (stereo not shown) [compound 13] | – | cell toxicity ([3]; 50μM or higher concentrations): total cell lethality within hours |
| N#CC1=C(SCc2cccc(N3CCOCC3)c2)SC(c2cc(O)ccc2O)NC1=O (stereo not shown) [compound 27] | – | inhibition of GALK / lowering of gal-1P in cells (in words) [2]: neither 27 nor 29 was able to inhibit GALK or lowered gal-1P; cell tolerance ([3]; up to 100μM): well tolerated |
| N#CC1=C(SCc2ccccc2)SC(c2ccc(C(=O)O)cc2)NC1=O (stereo not shown) [compound 4] | possess inhibitory activities | – |
| N#CC1=C(SCc2ccccc2)SC(c2ccc(O)c(O)c2)NC1=O (stereo not shown) [compound 2] | – | toxicity in patient cells ([3]; concentration not given): toxicity |
| CCCCSC1=C(C#N)C(=O)NC(c2ccccc2O)S1 (stereo not shown) [compound 7] | not all the compounds with hydroxyl groups on the A ring displayed inhibitory activity | – |
| CC1(C)NC(=O)C(C#N)=C(SCc2ccccc2)S1 [compound 6] | did not display any inhibitory activity | – |
| N#CC1=C(SCc2ccccc2)SC(c2ccccc2O)NC1=O (stereo not shown) [compound 1] | – | IC50 [1]: 1.4 ± 0.7 µM |

More lines, main results first:

| inhibitory activity against GALK (in words) [1] | Compound | also measured |
| --- | --- | --- |
| did not display any inhibitory activity | N#CC1=C(SCc2ccccc2)SCNC1=O [compound 8] | – |
| inactive | CSC1=C(C#N)C(=O)NC(c2ccc(Cl)cc2Cl)S1 (stereo not shown) [compound 10] | – |
| possess inhibitory activities | CSC1=C(C#N)C(=O)NC(c2ccccc2O)S1 (stereo not shown) [compound 3] | – |
| did not display any inhibitory activity | CC1NC(=O)C(C#N)=C(SCc2ccccc2)S1 (stereo not shown) [compound 5] | – |
| exhibited no activity | N#CC1=C(SCc2ccc(O)cc2)SC2(CCC(C(=O)O)CC2)NC1=O (stereo not shown) [compound 9] | – |
